Measured values as given in PMC4774911, “Biochemical Screening of Five Protein Kinases from Plasmodium falciparum against 14,000 Cell-Active Compounds” (PLoS ONE, 2016).
Read-outs that look alike come from different tables or passages of the source.

What was measured:
[1] = target: T1, Plasmodium falciparum calcium-dependent protein kinase 1 (CDPK1) (Plasmodium falciparum, UniProt P62344); test: CDPK1 Kinase-Glo ATP-consumption screen and dose-response; assay type: biochemical; conditions: hits below 1 uM; read-out: CDPK1 IC50
T1 construct: 6-Histidine (N); made in house
T1 sequence (P62344 whole entry): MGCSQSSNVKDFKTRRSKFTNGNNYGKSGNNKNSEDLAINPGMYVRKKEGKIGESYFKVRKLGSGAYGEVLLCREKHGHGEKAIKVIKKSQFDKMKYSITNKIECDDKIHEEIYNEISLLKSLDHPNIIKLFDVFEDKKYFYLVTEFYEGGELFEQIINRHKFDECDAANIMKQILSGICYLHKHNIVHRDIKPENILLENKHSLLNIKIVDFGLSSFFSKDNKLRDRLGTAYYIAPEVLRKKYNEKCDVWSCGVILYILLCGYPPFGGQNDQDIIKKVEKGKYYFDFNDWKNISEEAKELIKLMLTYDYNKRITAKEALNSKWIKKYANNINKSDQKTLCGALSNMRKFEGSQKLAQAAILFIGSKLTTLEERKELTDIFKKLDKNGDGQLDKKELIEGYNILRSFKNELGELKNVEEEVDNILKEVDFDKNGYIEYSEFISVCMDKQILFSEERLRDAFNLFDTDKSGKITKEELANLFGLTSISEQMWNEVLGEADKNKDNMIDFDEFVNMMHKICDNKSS
Protocol: Biochemical assays were performed in white 384-well plates (Nunc). Liquid transfers were done manually with 8-channel pipets. Compounds were initially tested in a single-point screen (final concentration 1 μM). […] The catalytic activity of each kinase was considered proportional to ATP consumed, as determined from measurements of residual [ATP] with the luciferase-based reagent Kinase-Glo (Promega) following incubation. Luminescence (proportional to residual [ATP]) was measured on the plate readers FLx800 (BioTek Instruments, Winooski, VT, USA) and MicroBeta^2 (PerkinElmer, Waltham, MA, USA). Incubation times were chosen to ensure near-complete ATP depletion in the absence of inhibition, thus maximizing the difference in signal between inhibited and uninhibited wells.
40 μM Syntide-2 was used as a substrate; BKI-1 [14] was used as a control inhibitor, while reaction mixtures lacking Syntide-2 were included as an additional negative control. Incubation time was 90 minutes. Reactions were terminated by adding excess EGTA (5 mM), which sequesters Ca^2+ and halts calcium-dependent kinase activity.

[2] = test system: HepG2 cells; conditions: Nature 2010, cited from earlier work
[3] = test system: P. falciparum 3D7 cells; conditions: Nature 2010, cited from earlier work
[4] = test system: DD2; parameters: method as in F.J. Gamo et al., Nature 2010; conditions: P. falciparum Dd2; downloaded from ChEMBL ref F.J. Gamo et al., Nature 2010; cited from earlier work
[5] = test system: 3D7 PFLDH; parameters: method as in F.J. Gamo et al., Nature 2010; conditions: downloaded from ChEMBL ref F.J. Gamo et al., Nature 2010; cited from earlier work
[6] = test system: DD2; parameters: method as in F.J. Gamo et al., Nature 2010; conditions: downloaded from ChEMBL, ref F.J. Gamo et al., Nature 2010; cited from earlier work
[7] = test system: 3D7 PFLDH; parameters: method as in F.J. Gamo et al., Nature 2010; concentration or dose not given beside the values; conditions: downloaded from ChEMBL, ref F.J. Gamo et al., Nature 2010; cited from earlier work
[8] = HepG2 cells, downloaded from ChEMBL ref F.J. Gamo et al.
[9] = P. falciparum 3D7, downloaded from ChEMBL ref F.J. Gamo et al.
[10] = 3D7, downloaded from ChEMBL, ref F.J. Gamo et al.

Row | SMILES | IC50 [1] | PCT_INHIB_HEPG2 [2, 8] | PCT_IHB_3D7 [3, 9] | pXC50_3D7 [3, 9] | PCT_INHB_DD2 [4] | PCT_INHIB_3D7_PFLDH [5] | PCT_INHIB_HEPG2 ([2]; HepG2, downloaded from ChEMBL, ref F.J. Gamo et al.) | PCT_IHB_3D7 [3, 10] | pXC50_3D7 [3, 10] | PCT_INHB_DD2 [6] | PCT_INHIB_3D7_PFLDH [7]
1 | Nc1ncc(-c2cn[nH]c2)cc1-c1nc2ccc(F)cc2[nH]1 [TCMDC-133559] | 150 nM | 38 | 100 | 6.137 | 53 | 0 |  |  |  |  | 
2 | Nc1ncc(-c2cn[nH]c2)cc1-c1nc2ccc(Cl)cc2[nH]1 [TCMDC-133560] | 834 nM | 46 | 100 | 6.098 | 100 | 0 |  |  |  |  | 
3 | Cc1cccc2[nH]c(-c3cc(-c4cn[nH]c4)cnc3N)nc12 [TCMDC-133561] | 296 nM | 37 | 100 | 6.6562 | 93 | 0 |  |  |  |  | 
4 | Nc1ncc(-c2cn[nH]c2)cc1-c1nc2cc(Cl)cnc2[nH]1 [TCMDC-133562] | 280 nM | 40 | 100 | 6.039 | 70 | 1 |  |  |  |  | 
5 | CCn1c(-c2nc(-c3ccnc(N4CCN(C)CC4)c3)cnc2N)nc2cc(S(C)(=O)=O)ccc21 [TCMDC-134155] | 654 nM | 44 | 100 | 6.089 | 76 | 0 |  |  |  |  | 
6 | CCNC(=O)Nc1ccc(-c2cnc(N)c(-c3nc4ccc(OC)cc4[nH]3)c2)cc1 [TCMDC-135321] | 145 nM | 51 | 100 | 6.302 | 43 | 1 |  |  |  |  | 
7 | COc1ccc2nc(-c3cc(-c4ccc(NC(C)=O)cc4)cnc3N)[nH]c2c1 [TCMDC-135365] | 501 nM | 55 | 93 | 5.906 | 73 | 0 |  |  |  |  | 
8 | COc1cccc(Nc2nccc(-c3c(-c4cccc(NC(=O)c5c(F)cccc5F)c4)nn4ccccc34)n2)c1 [TCMDC-135508] | 87 nM | 35 | 98 | 6.749 | 98 | 0 |  |  |  |  | 
9 | CS(=O)(=O)Cc1ccc(Nc2nccc(-c3c(-c4cccc(NC(=O)c5c(F)cccc5F)c4)nn4ncccc34)n2)cc1 [TCMDC-135681] | 11 nM | 86 | 97 | 6.79 | 93 | 1 |  |  |  |  | 
10 | CCn1c(-c2nonc2N)nc2c(-c3cccc(NC(=O)Nc4ccc(Cl)cc4)c3)ncc(OCCCN)c21.O=C(O)C(F)(F)F [TCMDC-136152] | 44 nM | 26 | 96 | 6.082 | 72 | 0 |  |  |  |  | 
11 | Cl.Oc1cc(-c2nc(-c3ccccc3)[nH]c2-c2ccncc2)ccc1Cl [TCMDC-139660] | 975 nM | 64 | 96 | 6.089 | 91 | 0 |  |  |  |  | 
12 | CC(C)(CNCc1ccccc1)c1nc(-c2ccc(Cl)c(O)c2)c(-c2ccncc2)[nH]1.Cl [TCMDC-140389] | 190 nM | 77 | 100 | 6.27 | 99 | 0 |  |  |  |  | 
13 | COc1ccc(CNCC(C)(C)c2nc(-c3ccc(Cl)c(O)c3)c(-c3ccncc3)[nH]2)cc1.Cl [TCMDC-140538] | 186 nM | 76 | 100 | 6.447 | 99 | 1 |  |  |  |  | 
14 | CC(C)(CNCc1ccc(Cl)cc1)c1nc(-c2ccc(Cl)c(O)c2)c(-c2ccncc2)[nH]1.Cl [TCMDC-140548] | 257 nM | 86 | 100 | 6.322 | 98 | 5 |  |  |  |  | 
15 | CC(C)(CNCc1ccc(F)c(F)c1)c1nc(-c2ccc(Cl)c(O)c2)c(-c2ccncc2)[nH]1.Cl [TCMDC-140672] | 451 nM | 74 | 100 | 6.181 | 89 | 2 |  |  |  |  | 
16 | COc1cc(-c2nc(C(C)(C)CN)[nH]c2-c2ccncc2)ccc1Br.Cl [TCMDC-140674] | 159 nM | 17 | 97 | 6.114 | 95 | 1 |  |  |  |  | 
17 | CC(C)(NCc1ncc[nH]1)c1nc(-c2ccc(Cl)c(O)c2)c(-c2ccncc2)[nH]1.Cl [TCMDC-140686] | 144 nM | 42 | 95 |  | 97 | 3 |  |  |  |  | 
18 | COc1cccc(CNCC(C)(C)c2nc(-c3ccc(Cl)c(O)c3)c(-c3ccncc3)[nH]2)c1.Cl [TCMDC-140687] | 275 nM | 74 | 100 | 6.159 | 98 | 0 |  |  |  |  | 
19 | CC(C)(CNCc1ccc(Cl)c(Cl)c1)c1nc(-c2ccc(Cl)c(O)c2)c(-c2ccncc2)[nH]1.Cl [TCMDC-140688] | 539 nM | 43 | 100 | 6.121 | 97 | 0 |  |  |  |  | 
20 | CN1CCC=C(C(=O)NCC(C)(C)c2nc(-c3ccc(Cl)c(O)c3)c(-c3ccncc3)[nH]2)C1.Cl [TCMDC-140700] | 213 nM | 39 | 96 | 6 | 96 | 0 |  |  |  |  | 
21 | CC(C)(CNCc1ccc(OC(F)(F)F)cc1)c1nc(-c2ccc(Cl)c(O)c2)c(-c2ccncc2)[nH]1.Cl [TCMDC-140708] | 438 nM | 38 | 100 | 6.263 | 99 | 0 |  |  |  |  | 
22 | Cc1ccc(Nc2nccc(N(C)c3ccc4c(c3)nc(NC(=O)Cc3ccc(Cl)c(Cl)c3)n4C)n2)cc1S(N)(=O)=O.O=C(O)C(F)(F)F [TCMDC-141965] | 345 nM |  |  |  |  |  | 71% | 94% | 5.954 | 60% | 0%
